# In patent publication US12174198B2, “Methods of characterizing condensate-associated characteristics of compounds and uses thereof” (Dewpoint Therapeutics, Inc., priority 2019, dated 2024):
# Where a name gives a salt, the structure may show the parent alone.
# How the values were obtained:
# [1] = molecular target: T1, FUS-SNAP condensates (Homo sapiens, UniProt P35637); assay: Mass spectrometry-based depletion assay of compound partitioning; assay type: physicochemical; conditions: for Partitioning into FUS-condensates at different compound concentrations (fraction of compound in supernatant): FIG. 8, 0.1 μM, 1 μM and 10 μM, N=3 technical repeats; for Partitioning into FUS-condensates at different compound concentrations (fraction of compound in supernatant) / Measured fraction outside of the FUS-SNAP condensates, single compound test reactions versus mixture of four compounds: 0.01 μM; for Measured fraction outside of the FUS-SNAP condensates, single compound test reactions versus mixture of four compounds: FIG. 9A, 9B, 0.1 μM and 1 μM, triplicate; for Identified partitioning into FUS-condensates: as identified before Example 5; for Ratio of compound concentration in versus compound concentration out, MS-based assay: condensate volume fraction of 1/1000 used
# T1 sequence (P35637 1-526): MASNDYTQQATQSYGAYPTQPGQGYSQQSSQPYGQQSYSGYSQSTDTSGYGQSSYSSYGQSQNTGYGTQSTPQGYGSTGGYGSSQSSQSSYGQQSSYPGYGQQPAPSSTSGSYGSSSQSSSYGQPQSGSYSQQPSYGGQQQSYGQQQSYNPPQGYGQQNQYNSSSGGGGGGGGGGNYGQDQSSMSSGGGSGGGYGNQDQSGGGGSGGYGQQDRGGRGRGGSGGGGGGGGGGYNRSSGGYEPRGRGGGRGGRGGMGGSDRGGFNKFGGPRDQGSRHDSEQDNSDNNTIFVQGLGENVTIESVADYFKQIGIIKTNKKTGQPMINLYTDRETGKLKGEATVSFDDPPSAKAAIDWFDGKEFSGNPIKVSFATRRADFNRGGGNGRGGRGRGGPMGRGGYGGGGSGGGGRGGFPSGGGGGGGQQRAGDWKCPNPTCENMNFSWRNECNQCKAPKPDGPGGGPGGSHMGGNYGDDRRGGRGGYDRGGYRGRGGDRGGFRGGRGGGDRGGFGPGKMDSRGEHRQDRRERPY
# Description: Protein Buffer was prepared (50 mM Tris, pH 7.25, 500 mM KCl, 1 mM DTT, and 5% glycerol). The high salt concentration of Protein Buffer prevents phase separation of macromolecules, e.g., proteins, contained therein. 20 μl aliquots of 70 μM FUS-SNAP protein stock solution were prepared in Protein Buffer. The aliquots of FUS-SNAP protein stock solution were frozen and stored prior to use. Dilution Buffer was prepared (14.7 mM Tris, pH 7.25, and 1 mM DTT).
# Aliquots of 70 μM FUS-SNAP protein stock solution were thawed at room temperature for about 10 minutes. The aliquots of protein stock solution appeared clear with no visible precipitates. The thawed protein stock solution were filtered using centrifugation filters (Millipore, UFC30VV00). In brief, the aliquots of protein stock solution were added to a centrifugation filed and centrifuged for 1 minutes at 20,000 rcf at room temperature. The flow-through was collected. The protein concentration of the flow-through was measured and a solution of 33.3 μM FUS-SNAP was prepared by diluting the filtered flow-through and Dilution Buffer.
# 40 μL test reactions were prepared inside a PCR-tube or a PCR-strip (8 wells; AXYGEN™ 8-Strip PCR Tubes, 0.2 mL) using the following: (i) 34 μL Dilution Buffer, with the test compound at a given concentration, and with DMSO to obtain a final DMSO concentration of 1%, and (ii) 6 μL of 33.3 μM FUS-SNAP filtered protein solution. The final concentration of the 40 reactions were 5 μM FUS-SNAP, 75 mM KCl, 20 mM Tris, 0.75% Glycerol, 1 mM DTT, 1% DMSO, and, for the reactions containing a test compound, the desired test compound concentration.
# 40 μL reference reactions were prepared as described for the test reactions, however, no test compound was added at this stage.
# The test reactions and the reference reactions were incubated for 15 minutes at room temperature. It is expected that within the test reactions, condensed high density liquid droplets (mM concentration of protein) of FUS-SNAP protein (condensed phase) are present in an environment of a lower concentrated solution (μM concentration of protein) of FUS-SNAP dilute phase. Test compounds may or may not partition into the condensed phase causing a reduction of the concentration outside (test compound in the dilute phase) and an increase of the concentration inside (test compound in the droplets). The volume of high density liquid droplets is estimated to be at least 1000-fold smaller than the total volume of the reaction, e.g., 20 nL of a condensed phase in a 20 μL reaction.
# Following the 15 minute incubation period, the test reactions and reference reactions were processed to separate condensates (the high density liquid droplets) from the supernatant (the dilute phase). Briefly, the test reactions and reference reactions were centrifuged at 10,000 rcf for 10 minutes in a cooled centrifuge at 20° C. When PCR-strips were sued, the rotor used was the Eppendorf F-45-48-5-PCR. 35 μL of the supernatant from each tube was removed and transferred to a new tube being careful not to disturb the pellets, which contained the condensates.
# For the reference reactions, a known amount of the test compound was added to the tube containing the supernatant (which contains protein not associated with a condensate), such that the final compound concentration is the same as the initial concentration of the compound in the test reaction. Reference reactions can also be formed by measuring the amount of protein in the supernatant of a test reaction and replicating a supernatant solution based on the obtained information. The known amount of the compound added to the supernatant from the reference reaction was used to calibrate the mass spectrometry signal of the test reaction.
# Additionally, the compound was extracted from the test reactions in order to directly measure the amount of compound in the formed condensates. […]
# [2] = molecular target: T2, FUS-GFP condensates (Homo sapiens, UniProt P35637); assay: Co-localization of dye and FUS in FUS-GFP condensates (confocal imaging); assay type: physicochemical; conditions: FIG. 6; FUS-GFP channel and Rhodamine 800 channel
# T2 sequence (P35637 1-526): T1 sequence (P35637 1-526)
# Description: FUS-GFP condensates were prepared as described for FUS-SNAP in Example 2 using Dye 18.
# A spinning disk confocal microscope was used to acquire images of the samples. A 60×oil high-NA objective lens was used to capture the condensate droplets. The laser power was set to 20% and the exposure times were adjusted to the fluorescence emission intensity specific for each dye. Exposure times ranged from 1-1000 ms. Appropriate filter settings were used, matching the excitation and emission spectra of the dye and GFP. Control images were taken of condensates containing FUS-GFP with no dye.
SMILES,Identified partitioning into FUS-condensates [1],"Ratio of compound concentration in versus compound concentration out, MS-based assay [1]",Co-localization of dye with GFP-labeled FUS in condensates [2],Partitioning into FUS-condensates at different compound concentrations (fraction of compound in supernatant) [1],"Measured fraction outside of the FUS-SNAP condensates, single compound test reactions versus mixture of four compounds [1]"
"COC(=O)c1ccccc1-c1c2ccc(=N)cc-2oc2cc(N)ccc12.Cl [Dye 14, Rhodamine 123]",–,1-100,–,–,–
"CCN(CC)c1ccc2c(-c3ccccc3C(=O)O)c3ccc(=[N+](CC)CC)cc-3oc2c1 [Dye 16, Rhodamine B]",–,666,–,–,in agreement
"O=C([O-])c1ccccc1C1=c2cc3c4c(c2Oc2c1cc1c5c2CCCN5CCC1)CCC[N+]=4CCC3 [Dye 17, Rhodamine 101 inner salt]",partitioning into FUS-condensates,">8,000",–,partition into the FUS-condensates at lower compound concentrations,–

# Now from value to compound, other results behind:
Identified partitioning into FUS-condensates [1],"Ratio of compound concentration in versus compound concentration out, MS-based assay [1]",Co-localization of dye with GFP-labeled FUS in condensates [2],SMILES,Partitioning into FUS-condensates at different compound concentrations (fraction of compound in supernatant) [1],"Measured fraction outside of the FUS-SNAP condensates, single compound test reactions versus mixture of four compounds [1]"
not partitioning into FUS-condensates,1-100,–,"O=C1OC2(c3ccc(O)cc3Oc3cc(O)ccc32)c2ccccc21 [Dye 6, Fluorescein]",does not partition into the FUS-condensates at any of the tested concentrations,in agreement
–,">2,000",co-localized in the condensates,"N#CC1=c2cc3c4c(c2Oc2c1cc1c5c2CCCN5CCC1)CCC[N+]=4CCC3 [Dye 18, Rhodamine 800]",–,–
